According to patent US9481885B2, “Methods and compositions related to miR-21 and miR-29a, exosome inhibition, and cancer metastasis” (Ohio State Innovation Foundation, priority 2011, dated 2016):

Target: T1, human TLR8 (Homo sapiens, UniProt Q9NR97)
T1 construct: host or cells: HEK-Blue TLR8 293 (TLR8-HEK-293)
T1 sequence (Q9NR97 27-1041): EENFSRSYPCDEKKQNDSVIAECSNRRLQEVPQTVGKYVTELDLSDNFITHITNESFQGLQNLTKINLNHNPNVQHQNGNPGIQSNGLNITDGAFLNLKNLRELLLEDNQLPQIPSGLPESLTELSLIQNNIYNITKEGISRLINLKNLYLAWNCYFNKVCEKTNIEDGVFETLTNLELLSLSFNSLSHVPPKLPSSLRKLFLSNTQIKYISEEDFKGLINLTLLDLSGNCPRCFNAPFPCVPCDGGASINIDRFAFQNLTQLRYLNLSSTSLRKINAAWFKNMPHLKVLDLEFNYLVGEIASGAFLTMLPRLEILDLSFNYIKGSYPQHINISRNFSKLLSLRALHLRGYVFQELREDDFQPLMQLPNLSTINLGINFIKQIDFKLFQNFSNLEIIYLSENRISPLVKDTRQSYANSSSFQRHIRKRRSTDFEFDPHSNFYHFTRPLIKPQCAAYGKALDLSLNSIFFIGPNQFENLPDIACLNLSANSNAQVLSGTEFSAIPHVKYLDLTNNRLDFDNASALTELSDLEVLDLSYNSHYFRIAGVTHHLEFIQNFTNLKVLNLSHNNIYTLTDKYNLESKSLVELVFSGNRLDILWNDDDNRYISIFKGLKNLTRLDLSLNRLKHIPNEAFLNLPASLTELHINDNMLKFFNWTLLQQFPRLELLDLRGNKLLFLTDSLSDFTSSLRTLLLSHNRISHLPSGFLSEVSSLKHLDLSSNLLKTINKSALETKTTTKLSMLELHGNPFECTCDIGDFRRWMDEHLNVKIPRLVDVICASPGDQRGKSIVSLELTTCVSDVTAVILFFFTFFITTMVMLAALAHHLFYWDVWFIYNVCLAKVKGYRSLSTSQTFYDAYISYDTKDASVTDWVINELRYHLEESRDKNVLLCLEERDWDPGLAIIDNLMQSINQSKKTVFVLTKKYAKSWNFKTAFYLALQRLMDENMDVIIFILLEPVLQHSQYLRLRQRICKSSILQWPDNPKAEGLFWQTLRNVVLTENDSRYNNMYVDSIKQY
Experiment: NF-κB reporter assay (QUANTI-Blue) in TLR8-HEK-293 cells
Assay type: cell-based
Conditions: Dotap formulations of miRNA
Experimental: To investigate whether miRNA-induced activation of TLRs also occurs in human cells, an NF-κB reporter assay was performed in HEK-293 cells. NF-κB, a transcription factor modulating the expression of several cytokine genes, is activated by several TLRs, including the only ssRNA-binding human TLRs, TLR7 and TLR8. Therefore, we treated HEK-293 cells expressing human TLR7 or TLR8 (hereafter, TLR7- and TLR8-HEK-293 cells, respectively) with Dotap alone or with Dotap formulations of miR-16, -21, -29a, or -147 and performed an NF-κB reporter assay. As positive controls Gardiquimod and ssRNA40 were used, specific agonists of TLR7 and TLR8, respectively. […] To confirm this conclusion, transfected were TLR8-HEK-293 cells with a plasmid encoding a dominant negative form of TLR8 (TLR8DN) and treated these cells with the miRNAs of interest. In TLR8DN cells, the activation of NF-κB by miR-21 and miR-29a was abolished (FIG. 3F). […] NF-κB activity was assessed by QUANTI-Blue Assay (Invivogen). […] Levels of SEAP can be easily determined with QUANTI-Blue, a detection medium that turns purple/blue in the presence of alkaline phosphatase. […] The plate was then incubated at 37° C. for 1-3 h and SEAP levels were determined by reading the plate with a spectrophotometer at 620-655 nm (SpectraMax, Molecular Devices).

Substance: miR-147: synthetic mature miRNA (SEQ ID NO: 3), sequence similar to RNA33, Dotap formulation (GUGUGUGGAAAUGCUUCUGC; DOTAP formulation, further chemistry not given here)
- NF-κB activation: activated
